These are literature values, as cited in US20040054006A1 (priority 1999, published 2004).

The conditions of data set [1]: rats, dietary 1% cyclocreatine.
The conditions of data set [2]: mice, up to 1% of diet for 2 weeks or for over 4 weeks.
For data set [3] the following is noted: 1% dietary cyclocreatine.
A further data set relates to creatine kinase. The settings on record: forward reaction, both in vitro and in vivo.
The conditions of data set [4]: newly hatched chicks, diet containing 1% cyclocreatine.
The conditions of data set [5]: feeding animals cyclocreatine, e.g. 1% dietary.
For data set [6] the following is noted: fed to mice, rats and chicks.
The conditions of data set [7]: intravenous injection, up to 8 grams/day, patients with cardiac diseases.

Turning to `NC1=NCCN1CC(=O)O` [cyclocreatine, 1-carboxymethyl-2-iminoimidazolidine], the tissue uptake entry in data set [1] was “taken up by muscle, heart and brain”. Moreover, the gross adverse effects entry in data set [2] is “without gross adverse effects”. In addition, in data set [3], the antiviral activity entry is “antiviral activity of cyclocreatine is observed”. Moreover, the “phosphorylation by creatine kinase” value with creatine kinase was “phosphorylated efficiently”. The “growth versus control chicks” value in data set [4] is listed as “grew more slowly than control chicks”. For the same compound, the mortality entry in data set [4] (in the presence of antibiotics) is recorded as “without significant mortality”. The “accumulation in different organs” value in data set [5] is listed as “accumulation of cyclocreatine in different organs in mM concentrations”. The tolerability entry in data set [6] was “well-tolerated”.

Consider “N-phosphoryl creatine [Creatine phosphate]”, for which the adverse side effects entry in data set [7] was “no adverse side effects”.
